Measurements from patent publication US3932423A, “Imidazolido(1,5-c)thiazolidine-3-spiro-4-piperidines” (Yoshitomi Pharmaceutical Industries, priority 1973, dated 1976).

Tests used:
Acute Toxicity = test: Acute Toxicity; parameters: species or system mice, female; details: mouse, in vivo, po; lethal rate within two days
Experimental: The test compound was orally administered to groups each of 5 female mice respectively. The LD50 was calculated from the lethal rate (50 percent) within two days after administration of the test compound.

mice [1] = test: Suppression of Spontaneous Motility; assay type: in vivo, dd-strain, male; details: Mus musculus, ip; counted for 20 minutes, 40 minutes after administration; dose for 50 percent suppression
Experimental: The spontaneous motility of mice was counted by magnetic counter of photocell method according to P. B. Dews in "British Gournal of Pharmacology", vol. 8, p. 46 ff. (1953). Forty minutes after the intraperitoneal administration of the test compound, the spontaneous motility was counted for 20 minutes.

mice [2] = test: Reserpine Potentiation; assay type: in vivo, dd-strain, female; details: Mus musculus, po, 30 minutes before reserpine 10 mg./kg. i.p.; dose potentiating reserpine effect by 30 percent 15 minutes after reserpine; read-out: Reserpine Potentiation PD30
Experimental: Reserpine potentiation was measured by the method described by M. D. Aceto in "Toxicology and Applied Pharmacology," vol. 7, p. 329 ff. (1965). […] The degree of blepharoptosis of both eyes was observed 15, 60, 120 and 180 minutes after the administration of reserpine.

mice [3] = test: Antimescaline Effect; assay type: in vivo, female; details: Mus musculus, po, 60 minutes prior to mescaline sulfate 30 mg./kg. i.p.; prevention of scratching in 50 percent of animals
Experimental: A modification of the method of R. A. Turner [Screening Method in Pharmacology, Edited by R. A. Turner, p. 73, Academic Press (1965)] was used to study the prevention of scratching episodes induced by mescaline. The test compound was given to groups each of 6 female mice orally 60 minutes prior to treatment with mescaline sulfate (30 mg./kg. of body weight, intraperitoneal).

mice [4] = test: Suppression of Fighting Behavior; assay type: in vivo, dd-strain, female; details: Mus musculus, po, 60 minutes prior to electric foot-shock; dose to suppress 50 percent of fighting pairs
Experimental: 125, p. 28 ff. (1959). […] The ED50, the dose required to suppress 50 percent of fighting pairs, was determined graphically.

mice [5] = test: Methamphetamine Group Toxicity; details: Mus musculus, po, 5 h, read-out: Methamphetamine Group Toxicity, ED50

| SMILES | LD50 at 48 h (Acute Toxicity) | ED50 (mice [1]) | ED30 (mice [2]) | ED50 (mice [3]) | ED50 (mice [4]) | ED50 (mice [5]) |
| --- | --- | --- | --- | --- | --- | --- |
| NC(=O)C1(N2CCCCC2)CCN(CCCC(=O)c2ccc(F)cc2)CC1 [Floropipamide] | > 1000 mg/kg | 1 mg/kg | 2.5 mg/kg | 1 mg/kg | 5.6 mg/kg | 9.2 mg/kg |
| CN1C(=O)C2CSC3(CCN(CCCC(=O)c4ccc(F)cc4)CC3)N2C1=O (stereo not drawn) [Compound A, 5,7-dioxo-6-methylimidazolido[1,5-c]thiazolidine-3-spiro-4'-[1'-(4-p-fluorophenyl-4-oxobutyl)piperidine]] | > 1000 mg/kg | 0.1 mg/kg | 1.9 mg/kg | 0.1 mg/kg | 2.6 mg/kg | 1.1 mg/kg |
